Source: PMC9414233, “Iridoid Glycosides Isolated from Bellardia trixago Identified as Inhibitors of Orobanche cumana Radicle Growth” (Toxins, 2022)
≈ marks a conversion by molar mass, not a printed value.

Legend:
[1] = system: Orobanche cumana radicles; assay: Orobanche cumana radicle growth bioassay; format: in vivo; conditions: for inhibition of radicle growth / inhibition at 100 µg/mL: 100 μg/mL, 7 days, relative to control (GR24 + 2% DMSO), ± standard error; for inhibition at 100 µg/mL: 168 h
Procedure: Allelopathic effects of each B. trixago extracts and isolated compounds were tested on Orobanche radicle growth according to previous protocols. Seeds of Orobanche cumana, were surface-sterilized by immersion in 0.5% (w/v) NaOCl and 0.02% (v/v) Tween 20, for 5 min, rinsed thoroughly with sterile distilled water, and dried in a laminar airflow cabinet. Approximately 100 seeds of Orobanche seeds were placed separately on 9 mm-diameter glass fiber filter paper disks (GFFP) (Whatman International Ltd., Maidstone, UK), moistened with 50 μL of sterile distilled water, and placed in incubators at 23 °C for 10 days inside Parafilm-sealed Petri dishes, to allow seed conditioning. Then, GFFP disks containing conditioned Orobanche seeds were transferred onto a sterile sheet of filter paper and transferred to new 9 cm sterile Petri dishes. Stock solutions of each B. trixago extract and isolated metabolite were respectively dissolved in dimethyl sulfoxide and subsequently individually diluted to 100 μg/mL using an aqueous solution of GR24 (10^−6 M). The final concentration of dimethyl sulfoxide was 2% in all test treatments. For each assay, 50 μL aliquots of each sample were applied to GFFP discs containing conditioned Orobanche seeds. Triplicate aliquots of a treatment only containing GR24 and 2% dimethyl sulfoxide was used as a control. Treated seeds were incubated in the dark at 23 °C for 7 days and radicle growth was determined for each GFFP disc, using a stereoscopic microscope (Leica S9i, Leica Microsystems GmbH, Wetzlar, Germany). For the characteristic of radicle growth, the value used was the average of 10 randomly selected radicles per GFFP disc. The percentage of radicle growth inhibition of each treatment was then calculated relative to the average radicle growth of control treatment.

[2] = parameters: method as in doi:10.1076/phbi.37.4.318.5808, PMID 12036030; conditions: cited from earlier work
[3] = parameters: method as in doi:10.1076/phbi.37.4.318.5808; conditions: cited from earlier work
Raphidocelis subcapitata = assay: Algal growth inhibition test (ISO 8692:2012); format: in vivo; conditions: 72 h
Procedure: (§1) The ecotoxicological tests were carried out on green freshwater algae Raphidocelis subcapitata, macrophyte Lepidium sativum, water flea Daphnia magna, nematode Caenorhabditis elegans and bacterium Aliivibrio fischeri to expand the range of endpoints due to differences in species sensitivity and exposure. Testing on R. subcapitata was performed using as endpoint the algal growth inhibition after 72 h of exposure and was based on ISO 8692:2012 [65]. The algal density was determined by spectrophotometric analysis (DR5000, Hach Lange GbH, Weinheim, Germany). Ecotoxicity tests were carried out in triplicate, at 25 ± 1 °C with constant illumination of 6700 lux. Testing on L. sativum was performed according to ISO 11269-1:2012 [66] considering germination and root elongation as endpoint after 72 h. Seeds (n = 10) were exposed in triplicate in Petri dishes and incubated at 25 ± 1 °C in darkness. Daphnia magna test was conducted according to UNI EN ISO 6341:2013 [67] and the endpoint evaluated was the immobilization after 24 h. Daphnids (less than 24 h old) were exposed to the samples at 20 ± 2 °C, in darkness without feeding. Testing on C. elegans was carried out, with a few modifications, according to the ASTM E2172-01 Standard Method (2014) using the 24 h mortality endpoint. The test was performed using age-synchronous adult nematodes exposed at 20 °C to compound 4, without feeding. […]

Lepidium sativum = assay: whole plant or invertebrate; format: in vivo; conditions: 72 h, read-out: EC50 (germination and root elongation)
Procedure: as §1

Daphnia magna = Daphnia magna immobilization test (UNI EN ISO 6341:2013); format: in vivo; conditions: 24 h
Procedure: as §1

Caenorhabditis elegans = assay: C. elegans 24 h mortality test (ASTM E2172-01); format: in vivo
Procedure: as §1

Aliivibrio fischeri = assay: Bioluminescence inhibition test (ISO 11348-3:2007, Microtox); format: in vivo; conditions: 0.5 h, 30 min
Procedure: as §1

Wistar rats = system: Wistar rats; parameters: method as in PMID 23195582; conditions: cited from earlier work
[4] = system: radicles of Orobanche crenata; parameters: method as in PMID 24044614; conditions: cited from earlier work

## C=C1[C@H]2[C@H](O[C@@H]3O[C@H](CO)[C@@H](O)[C@H](O)[C@H]3O)OC=C(C(=O)OC)[C@H]2C[C@@H]1O [Compound 5, gardoside methyl ester]
[1]
  inhibition of radicle growth: no significant inhibitory activity

## OCC1=CC[C@@H]2C=CO[C@@H](O[C@@H]3O[C@H](CO)[C@@H](O)[C@H](O)[C@H]3O)[C@H]12 [Compound 2, bartsioside]
[1]
  inhibition at 100 µg/mL: 61.1 ± 1.5%

## COC(=O)C1=CO[C@@H](O[C@@H]2O[C@H](CO)[C@@H](O)[C@H](O)[C@H]2O)[C@H]2[C@@H]1CC[C@]2(C)O [Compound 6, mussaenoside]
[1]
  inhibition at 100 µg/mL: 65.9 ± 2.9%
[2]
  DPPH scavenging activity: no DPPH scavenging activity
[3]
  antioxidant activity in β-carotene bleaching assay: antioxidant

## O=C(OCC1=C[C@@H](O)[C@@H]2C=CO[C@@H](O[C@@H]3O[C@H](CO)[C@@H](O)[C@H](O)[C@H]3O)[C@H]12)c1ccccc1 [Compound 4, melampyroside]
[1]; 100 µg/mL
  phytotoxicity observed on radicles: some degree of phytotoxicity observed as darkening
[1]
  inhibition at 100 µg/mL: 72.6%
Raphidocelis subcapitata
  EC50: ≥ 100 mg/L
Lepidium sativum
  EC50: ≥ 100 mg/L
Daphnia magna
  EC50: 33.3 mg/L (≈ 73.8 µM)
Caenorhabditis elegans
  EC50: 57.2 mg/L (≈ 127 µM)
Aliivibrio fischeri
  EC50: 76 mg/L (≈ 169 µM)
[2]
  DPPH scavenging activity: no DPPH scavenging activity
[3]
  antioxidant activity in β-carotene bleaching assay: pro-oxidant
Wistar rats
  cardioactivity: cardioactive

## O=C(O)c1ccccc1 [Compound 1, benzoic acid]
[4]
  inhibitory activity on radicles: moderate inhibitory activity

## OCC1=C[C@@H](O)[C@@H]2C=CO[C@@H](O[C@@H]3O[C@H](CO)[C@@H](O)[C@H](O)[C@H]3O)[C@H]12 [Compound 3, aucubin]
[1]
  inhibition of radicle growth: no significant inhibitory activity
[2]
  DPPH scavenging activity: no DPPH scavenging activity
[3]
  antioxidant activity in β-carotene bleaching assay: inactive
